“Also recorded” adds a separate entry of the source. Where two headings read alike, the source gives them in different places.
Legend:
cancer = settings: humans; cited from earlier work
[1] = test system: TNF production in murine leucocytes; test: TNF production in cultured murine leucocytes in vitro (8 h, ELISA); type: cell-based, mouse
Description: The effect of DMXAA on cultured murine leucocytes has also been investigated using LPS as a control. TNF was measured by enzyme-linked immunosorbent assay after 8 h.
Blood samples for extraction of leucocytes were taken by cardiac puncture of halothane-anaesthetised mice into 1-ml syringes containing ACD-A anticoagulant (0.1 ml). All extraction operations were carried out at 7° C. to prevent clotting. Samples were pooled and unsupplemented α-MEM was added to 30 ml and a 10-ml layer of Ficoll-Paque PLUS™ was slowly added to the bottom of the tubes. After centrifugation at 300×g for 30 min the upper layer was removed and the leucocyte layer was carefully drawn off into a fresh 50-ml centrifuge tube. The volume was adjusted to 50 ml with unsupplemented growth medium, the cells were centrifuged at 300×g, and the leucocytes were resuspended at 10^7 cells/ml in α-MEM supplemented with foetal bovine serum (10% v/v), streptomycin sulphate (100 μg/ml) and penicillin-G (100 units/ml).
Cells were added either to 24 well plates (1 ml/well; Nunc, Kamstrup, Roskilde, Denmark) or to 100 mm Petri dishes (10 ml/plate) and incubated in 5% CO2/air at 37° C. overnight. Agents (made up at twice the final concentration in growth medium) were added and plates were further incubated for 8 hours. After the appropriate incubation period of HPBL with drug in 24-well plates, supernatants were removed and either assayed immediately or stored at −20° C.
TNF standards were prepared by making serial dilutions of the TNF stock solution in supplemented culture media (concentration range 10-10,000 pg/ml). ELISA (enzyme-linked immunosorbent assay) plates were made using the OptEIA Human TNF-alpha-Set (Pharmingen, San Diego, Calif., USA). TNF standards and samples were added to the ELISA plates and the assays were carried out according to the manufacturer's directions.

[2] = cited from earlier work
murine tumours = settings: cited from earlier work
[3] = test system: TNF production in human peripheral blood leucocytes (HPBL); type: cell-based
Description: Partially purified buffy coats were purchased from Auckland Blood Centre and divided into 15-ml, aliquots in 50-ml centrifuge tubes (2070 Conical Tubes, Becton Dickinson Labware, N.J., USA). HPBL in tissue culture dishes (10 ml; 10^7 cells/ml) were incubated overnight in α-MEM culture medium supplemented with FCS (10% v/v), streptomycin sulphate (100 μg/ml) and penicillin-G (100 units/ml). All extraction operations were carried out at 7° C. to prevent clotting. Unsupplemented α-MEM medium was added to 30 ml and a 10-ml layer of Ficoll-Paque PLUS was slowly added to the bottom of the tubes. After centrifugation at 300 g for 30 min the upper layer was removed and the HPBL layer was carefully drawn off into a fresh 50-ml centrifuge tube. The volume was adjusted to 50 ml, the cells were centrifuged at 300 g, and HPBL were resuspended in supplemented α-MEM medium and added (1 ml/well) to 24 well plates (Nunc, Kamstrup, Roskilde, Denmark). Agents (made up at twice the final concentration) were added and plates were incubated for the appropriate times in 5% CO2air at 37° C. overnight. DMXAA sodium salt (this laboratory) was dissolved in medium and protected from light FAA (National Cancer Institute, USA) was dissolved in 5% (w/v) sodium bicarbonate and diluted with medium. Interleukin-laipha (R&D Systems, USA), okadaic acid, LPS and deacylated LPS (Sigma Chemical Co., USA) were dissolved in α-MEM, filter-sterilised and used immediately. The MEM-18 mouse anti-human CD14 IgG antibody was obtained from Sanbio bv, am Uden, Netherlands, and was freed from azide before use by ultrafiltration.
After the appropriate incubation period of HPBL with drug, supernatants were either used immediately or stored at −20° C. TNF standards were prepared by making serial dilutions of the TNF stock solution in supplemented culture media (concentration range 10-10,000 pg/ml). ELISA plates were made using the OptEIA Human TNF-alpha Set (Pharmingen, San Diego, Calif., USA). TNF standards and samples were added to the ELISA plates and the assays were carried out according to the makers' directions.

serum TNF in C57BL mice = test: In vivo serum TNF in mice with or without antibiotic pre-treatment; design: species or system mouse
Description: To test the hypothesis that low concentrations of LPS synergise with DMXAA for in vivo TNF production, mice were treated orally with antibiotics for […] and then treated with 25 mg/kg DMXAA. TNF levels were measured […]. C57BL mice were either untreated, or treated for 4 days prior to DMXAA with a mixture of antibiotics (cephalocin 2 g/l and neomycin 2 g/l in the drinking water). Mice received a single i.p. dose of DMXAA (25 mg/kg) and blood was collected by cardiac puncture of halothane-anaesthetised mice after 3 hours. Blood from each mouse was transferred to individual microcentrifuge tubes and allowed to clot overnight on ice before centrifugation at 2000×g for 20 minutes at 4° C. If clotting was not complete the sample was allowed to stand on ice for a further 2 hours, after which it was re-centrifuged. Serum was drawn off the top of the blood samples and stored at −20° C. until assay of TNF content. […] ELISA (enzyme-linked immunosorbent assay) plates were made using the OptEIA Human TNF-alpha-Set (Pharmingen, San Diego, Calif., USA). TNF standards and samples were added to the ELISA plates and the assays were carried out according to the manufacturer's directions.

Cc1ccc2c(=O)c3cccc(CC(=O)O)c3oc2c1C [DMXAA, 5,6-dimethylxanthenone-4-acetic acid]
clinical anti-cancer activity (cancer): marginal clinical anti-cancer activity | TNF production ([1]; DMXAA (800 μg/ml) co-incubated with anti-CD14 antibody (10 μl/well), murine leucocytes (FIG. 7)): high level of TNF production that was even greater than that caused by LPS | TNF production ([1]; DMXAA (800 μg/ml) coincubated with dLPS (500 μg/ml), murine leucocytes (FIG. 7)): significant (p<0.001) elevation of TNF production | TNF production ([1]; DMXAA alone (800 μg/ml), murine leucocytes, 8 h (FIG. 7)): did not significantly increase TNF production | water solubility [2]: highly water soluble | antitumour activity (murine tumours): significant antitumour activity | TNF production [3]: large increase in TNF production; also recorded: induced a higher degree of TNF production | induction of TNF by low concentrations of LPS ([3]; DMXAA added to LPS, peripheral blood monocytes): unexpectedly stimulated | induction of TNF by antibody (MEM-18) to CD14 ([3]; DMXAA added to anti-CD14 antibody, peripheral blood monocytes): unexpectedly stimulated | TNF induction ([3]; DMXAA alone, 800 μg/ml, HPBL): no substantial induction of TNF; also recorded: no substantial effect | TNF induction ([3]; DMXAA alone, cultured HPBL, concentration not given): little effect on TNF induction | increase in induction of TNF compared to IL-1 alone ([3]; DMXAA coadministered with IL-1, HPBL (FIG. 4)): up to 56 fold | serum TNF (serum TNF in C57BL mice; DMXAA 25 mg/kg i.p. following antibiotic treatment, versus mice not receiving antibiotics (FIG. 8)): increased serum TNF but the increase was significantly smaller (p<0.001) | serum TNF concentrations (serum TNF in C57BL mice; DMXAA 25 mg/kg single i.p. dose, mice not receiving antibiotics (FIG. 8)): substantially increased serum TNF concentrations

C=C1[C@@H](O)[C@@H]2O[C@]3(CC[C@H](/C=C/[C@@H](C)[C@@H]4CC(C)=C[C@@]5(O[C@H](C[C@@](C)(O)C(=O)O)CC[C@H]5O)O4)O3)CC[C@H]2O[C@@H]1[C@@H](O)C[C@H](C)[C@H]1O[C@@]2(CCCCO2)CC[C@H]1C [OA, okadaic acid, reference compound]
TNF synthesis ([3]; OA alone at concentrations higher than 20 ng/ml, HPBL): induced TNF synthesis | TNF induction ([3]; OA alone at concentrations up to 20 ng/ml, HPBL): no substantial induction of TNF

CCCCCCCCCCCCCC(=O)O[C@@H]1[C@@H](C)[C@@]2(O)[C@@H](C=C(CO)C[C@]3(O)C(=O)C(C)=C[C@@H]23)[C@@H]2C(C)(C)[C@]12OC(C)=O [PMA, phorbol-12-myristate-13-acetate, reference compound]
TNF synthesis ([3]; PMA alone at concentrations higher than 20 ng/ml, HPBL): induced TNF synthesis | TNF induction ([3]; PMA alone at concentrations up to 20 ng/ml, HPBL): no substantial induction of TNF

B1: IL-1: interleukin-1 alpha, inflammatory cytokine (R&D Systems) (protein, UniProt P01583 113-271, looked up)
Interleukin-1 alpha: SAPFSFLSNVKYNFMRIIKYEFILNDALNQSIIRANDQYLTAAALHNLDEAVKFDMGAYKSSKDDAKITVILRISKTQLYVTAQDEDQPVLLKEMPEIPKTITGSETNLLFFWETHGTKNYFTSVAHPNLFIATKQDYWVCLAGGPPSITDFQILENQA
TNF induction ([3]; IL-1 alone, HPBL (FIG. 4)): capable of inducing TNF

From US7510830B2, “Cancer treatment by combination therapy” (Cancer Research Technology Limited, priority 2000, dated 2009)
